≈ marks a conversion by molar mass, not a printed value.
What was measured:
Cryptococcus neoformans = test: Antifungal activity against Cryptococcus neoformans ATCC 32719 after 24 hrs by two-fold serial dilution method; assay type: functional; conditions: ATCC 32719, 24 h
Candida albicans = test: Antifungal activity against Candida albicans CMCC 76615 after 24 hrs by two-fold serial dilution method; assay type: functional; conditions: CMCC 76615, 24 h
Staphylococcus aureus [1] = test: Antibacterial activity against Staphylococcus aureus ATCC 25923 after 24 hrs by two-fold serial dilution method; assay type: functional; conditions: ATCC 25923, 24 h
Proteus vulgaris = test: Antibacterial activity against Proteus vulgaris ATCC 8427 after 24 hrs by two-fold serial dilution method; assay type: functional; conditions: ATCC 8427, 24 h
Candida tropicalis = test: Inhibition of Candida tropicalis ATCC 750 chitin synthase using UDP-GlcNAc as substrate at 300 ug/ml after 60 mins by microplate reader method
Pseudomonas aeruginosa = test: Antibacterial activity against Pseudomonas aeruginosa ATCC 9027 after 24 hrs by two-fold serial dilution method; assay type: functional; conditions: ATCC 9027, 24 h
Aspergillus fumigatus = test: Antifungal activity against Aspergillus fumigatus GIMCC 3.19 after 24 hrs by two-fold serial dilution method; assay type: functional; conditions: GIMCC 3.19, 24 h
Aspergillus flavus = test: Antifungal activity against Aspergillus flavus ATCC 16870 after 24 hrs by two-fold serial dilution method; assay type: functional; conditions: ATCC 16870, 24 h
Escherichia coli = test: Antibacterial activity against Escherichia coli JM 109 after 24 hrs by two-fold serial dilution method; assay type: functional; conditions: JM 109, 24 h
Bacillus spizizenii = test: Antibacterial activity against Bacillus subtilis ATCC 6633 after 24 hrs by two-fold serial dilution method; assay type: functional; conditions: ATCC 6633, 24 h
Staphylococcus aureus [2] = test: Antibacterial activity against Methicillin-resistant Staphylococcus aureus N 315 after 24 hrs by two-fold serial dilution method; assay type: functional; conditions: N 315, 24 h
[3] = Inhibition of Candida tropicalis ATCC 750 chitin synthase using UDP-GlcNAc as substrate after 60 mins by microplate reader method

| Structure (SMILES) | MIC (Cryptococcus neoformans) [mg/L] | MIC (Candida albicans) [mg/L] | MIC (Staphylococcus aureus [1]) [mg/L] | MIC (Proteus vulgaris) [mg/L] | inhibition (Candida tropicalis) [%] | MIC (Pseudomonas aeruginosa) [mg/L] | MIC (Aspergillus fumigatus) [mg/L] | MIC (Aspergillus flavus) [mg/L] | MIC (Escherichia coli) [mg/L] | MIC (Bacillus spizizenii) [mg/L] | MIC (Staphylococcus aureus [2]) [mg/L] | IC50 [3] [µM] |
| --- | --- | --- | --- | --- | --- | --- | --- | --- | --- | --- | --- | --- |
| COC(=O)C(Cc1ccccc1)NP(=O)(OCCN(C)c1cc(=O)oc2c(C)cccc12)Oc1ccccc1 (configuration not stated) | 64 (≈ 116 µM) | 128 (≈ 232 µM) | 256 (≈ 465 µM) | 256 (≈ 465 µM) | 48 | 128 (≈ 232 µM) | 128 (≈ 232 µM) | 64 (≈ 116 µM) | 256 (≈ 465 µM) | 16 (≈ 29.1 µM) | 1 (≈ 1.82 µM) | – |
| COC(=O)CNP(=O)(OCCN(C)c1cc(=O)oc2ccccc12)Oc1ccccc1 (configuration not stated) | 64 (≈ 143 µM) | 64 (≈ 143 µM) | 256 (≈ 573 µM) | 512 (≈ 1150 µM) | 49 | 256 (≈ 573 µM) | 128 (≈ 287 µM) | 128 (≈ 287 µM) | 128 (≈ 287 µM) | 512 (≈ 1150 µM) | 256 (≈ 573 µM) | 640 |
| COC(=O)CNP(=O)(OCCN(C)c1cc(=O)oc2c(C)cccc12)Oc1ccccc1 (configuration not stated) | 64 (≈ 139 µM) | 64 (≈ 139 µM) | 128 (≈ 278 µM) | 256 (≈ 556 µM) | 55 | 256 (≈ 556 µM) | 128 (≈ 278 µM) | 64 (≈ 139 µM) | 32 (≈ 69.5 µM) | 512 (≈ 1110 µM) | 256 (≈ 556 µM) | 450 |
| COC(=O)C(NP(=O)(OCCN(C)c1cc(=O)oc2cc(C)ccc12)Oc1ccccc1)C(C)C (configuration not stated) | 128 (≈ 255 µM) | 128 (≈ 255 µM) | 64 (≈ 127 µM) | 128 (≈ 255 µM) | 38 | 64 (≈ 127 µM) | 128 (≈ 255 µM) | 128 (≈ 255 µM) | 256 (≈ 509 µM) | 32 (≈ 63.7 µM) | 128 (≈ 255 µM) | – |
| COC(=O)C(C)NP(=O)(OCCN(C)c1cc(=O)oc2ccccc12)Oc1ccccc1 (configuration not stated) | 8 (≈ 17.4 µM) | 32 (≈ 69.5 µM) | 512 (≈ 1110 µM) | 512 (≈ 1110 µM) | 77 | 512 (≈ 1110 µM) | 32 (≈ 69.5 µM) | 64 (≈ 139 µM) | 512 (≈ 1110 µM) | 512 (≈ 1110 µM) | 512 (≈ 1110 µM) | 150 |
| CN[C@@H]1[C@H](O[C@H]2[C@H](O[C@H]3[C@H](O)[C@@H](O)[C@H](N=C(N)N)[C@@H](O)[C@@H]3N=C(N)N)O[C@@H](C)[C@]2(O)C=O)O[C@@H](CO)[C@H](O)[C@H]1O [STREPTOMYCIN] | – | – | 4 (≈ 6.88 µM) | 1 (≈ 1.72 µM) | – | 4 (≈ 6.88 µM) | – | – | 4 (≈ 6.88 µM) | 4 (≈ 6.88 µM) | 4 (≈ 6.88 µM) | – |
| COC(=O)C(Cc1ccccc1)NP(=O)(OCCN(C)c1cc(=O)oc2ccccc12)Oc1ccccc1 (configuration not stated) | 64 (≈ 119 µM) | 64 (≈ 119 µM) | 64 (≈ 119 µM) | 16 (≈ 29.8 µM) | 59 | 64 (≈ 119 µM) | 128 (≈ 239 µM) | 8 (≈ 14.9 µM) | 64 (≈ 119 µM) | 128 (≈ 239 µM) | 128 (≈ 239 µM) | 250 |
| COC(=O)C(NP(=O)(OCCN(C)c1cc(=O)oc2ccccc12)Oc1ccccc1)C(C)C (configuration not stated) | 64 (≈ 131 µM) | 32 (≈ 65.5 µM) | 256 (≈ 524 µM) | 512 (≈ 1050 µM) | 54 | 512 (≈ 1050 µM) | 64 (≈ 131 µM) | 16 (≈ 32.8 µM) | 512 (≈ 1050 µM) | 128 (≈ 262 µM) | 256 (≈ 524 µM) | 380 |
| COC(=O)CNP(=O)(OCCN(C)c1cc(=O)oc2ccc(C)cc12)Oc1ccccc1 (configuration not stated) | 64 (≈ 139 µM) | 128 (≈ 278 µM) | 256 (≈ 556 µM) | 512 (≈ 1110 µM) | 51 | 128 (≈ 278 µM) | 64 (≈ 139 µM) | 64 (≈ 139 µM) | 512 (≈ 1110 µM) | 256 (≈ 556 µM) | 256 (≈ 556 µM) | 600 |
| NC(=O)OC[C@H](O)[C@@H](O)[C@H](N)C(=O)N[C@H](C(=O)O)[C@H]1O[C@@H](n2cc(CO)c(=O)[nH]c2=O)[C@H](O)[C@@H]1O [POLYOXIN B] | 8 (≈ 15.8 µM) | 32 (≈ 63.1 µM) | – | – | 82 | – | 64 (≈ 126 µM) | 64 (≈ 126 µM) | – | – | – | 160 |
| COC(=O)CNP(=O)(OCCN(C)c1cc(=O)oc2cc(C)ccc12)Oc1ccccc1 (configuration not stated) | 16 (≈ 34.8 µM) | 32 (≈ 69.5 µM) | 256 (≈ 556 µM) | 512 (≈ 1110 µM) | 59 | 512 (≈ 1110 µM) | 32 (≈ 69.5 µM) | 64 (≈ 139 µM) | 128 (≈ 278 µM) | 512 (≈ 1110 µM) | 256 (≈ 556 µM) | 320 |
| COC(=O)C(C)NP(=O)(OCCN(C)c1cc(=O)oc2c(C)cccc12)Oc1ccccc1 (configuration not stated) | 128 (≈ 270 µM) | 64 (≈ 135 µM) | 64 (≈ 135 µM) | 128 (≈ 270 µM) | 64 | 256 (≈ 540 µM) | 32 (≈ 67.4 µM) | 64 (≈ 135 µM) | 128 (≈ 270 µM) | 512 (≈ 1080 µM) | 128 (≈ 270 µM) | 220 |
| COC(=O)C(NP(=O)(OCCN(C)c1cc(=O)oc2ccc(C)cc12)Oc1ccccc1)C(C)C (configuration not stated) | 32 (≈ 63.7 µM) | 64 (≈ 127 µM) | 16 (≈ 31.8 µM) | 32 (≈ 63.7 µM) | 41 | 16 (≈ 31.8 µM) | 128 (≈ 255 µM) | 128 (≈ 255 µM) | 16 (≈ 31.8 µM) | 16 (≈ 31.8 µM) | 32 (≈ 63.7 µM) | – |
| COC(=O)C(NP(=O)(OCCN(C)c1cc(=O)oc2c(C)cccc12)Oc1ccccc1)C(C)C (configuration not stated) | 128 (≈ 255 µM) | 128 (≈ 255 µM) | 128 (≈ 255 µM) | 256 (≈ 509 µM) | 45 | 256 (≈ 509 µM) | 128 (≈ 255 µM) | 128 (≈ 255 µM) | 256 (≈ 509 µM) | 32 (≈ 63.7 µM) | 32 (≈ 63.7 µM) | – |
| COC(=O)C(C)NP(=O)(OCCN(C)c1cc(=O)oc2cc(C)ccc12)Oc1ccccc1 (configuration not stated) | 128 (≈ 270 µM) | 128 (≈ 270 µM) | 128 (≈ 270 µM) | 256 (≈ 540 µM) | 45 | 256 (≈ 540 µM) | 128 (≈ 270 µM) | 64 (≈ 135 µM) | 128 (≈ 270 µM) | 256 (≈ 540 µM) | 256 (≈ 540 µM) | – |
| COC(=O)CNP(=O)(OCCN(C)c1cc(=O)oc2ccc(C(C)(C)C)cc12)Oc1ccccc1 (configuration not stated) | 32 (≈ 63.7 µM) | 64 (≈ 127 µM) | 64 (≈ 127 µM) | 64 (≈ 127 µM) | 50 | 16 (≈ 31.8 µM) | 32 (≈ 63.7 µM) | 64 (≈ 127 µM) | 64 (≈ 127 µM) | 16 (≈ 31.8 µM) | 8 (≈ 15.9 µM) | 620 |
| COC(=O)C(Cc1ccccc1)NP(=O)(OCCN(C)c1cc(=O)oc2ccc(C)cc12)Oc1ccccc1 (configuration not stated) | 64 (≈ 116 µM) | 64 (≈ 116 µM) | 64 (≈ 116 µM) | 16 (≈ 29.1 µM) | 43 | 256 (≈ 465 µM) | 128 (≈ 232 µM) | 64 (≈ 116 µM) | 64 (≈ 116 µM) | 64 (≈ 116 µM) | 128 (≈ 232 µM) | – |
| CC1COc2c(N3CCN(C)CC3)c(F)cc3c(=O)c(C(=O)O)cn1c23 (configuration not stated) [OFLOXACIN] | – | – | 1 (≈ 2.77 µM) | 0.25 (≈ 0.692 µM) | – | 0.25 (≈ 0.692 µM) | – | – | 0.25 (≈ 0.692 µM) | 0.25 (≈ 0.692 µM) | 1 (≈ 2.77 µM) | – |

From ChEMBL document CHEMBL3758177, “Synthesis and biological evaluation of novel phosphoramidate derivatives of coumarin as chitin synthase inhibitors and antifungal agents” (Eur J Med Chem, 2016)
